Literature values, collected in patent US8613910B2, “Flavonoids as synergists for enhancing the action of self-tanning substances” (Merck Patent GmbH, priority 2005, dated 2013).

Settings: amongst the hydroxyflavone structures investigated, entire pH range

For O=c1c(O)c(-c2ccc(O)c(O)c2)oc2cc(O)cc(O)c12 [quercetin, 3,3′,4′,5,7-pentahydroxyflavone], the antioxidant action is listed as “greatest activity”.
